From patent US20030125287A1, “Antisense oligonucleotides and methods to induce tumor cell death” (Hybridon, Inc., priority 2001, published 2003)
“Also recorded” adds a separate entry of the source. Oligonucleotides are written 5' to 3', each unit as a sugar letter and its base; * is a phosphorothioate linkage, no mark a phosphodiester; rarer units and linkages stand in square brackets, end groups in braces. Plain capitals give the bases only. d = 2'-deoxy (DNA)

How the values were obtained:
[1] = tested on: caspase-3; assay: Caspase-3 activity assay in MSN cells; format: cell-based, human
[2] = tested on: survivin; assay: Western blot of survivin protein in MSN cells treated with cell cycle checkpoint blockers; format: cell-based, human; details: for survivin expression / survivin protein abundance after cell cycle blocker: result in words, cell line not given; for fold increase of survivin protein relative to DMSO or EtOH: MSN cells, vinblastine 250 nM, nocadozole 10 μM, taxotere 1 μM
Description: Total protein was isolated from MSN cells either untreated or treated with vinblastine (250 nM), nocadozole (10 μM), or taxotere (1 μM). DMSO and ethanol (EtOH) were added as carriers. Each lane had 75 μg of total protein. The blots were cut at 32.9 kD, and the bottom blots were incubated with a survivin polyclonal antibody (1:500), while the top blot was incubated with a β-tubulin mAb (1:1000). In each of the treatments, the fold increase of survivin protein relative to DMSO or EtOH was vinblastine, 1.9; nocadozole, 2.6; taxotere, 1.7.
(§1) To block cells in G2/Ml MSN cells or TC620 cells were treated with 10 μM nocodazole, 1 μM taxotere, or 250 nM vinblastine for 16 hours, at which time total protein homogenates were isolated and proteins were examined following sodium dodecyl sulfate-polyacrylamide gel electrophoresis (SDS-PAGE) and immunoblotting.
(§2) Ten micrograms of the fusion protein was incubated with the survivin antibody (1:500) at 4° C. for 2 hours to overnight prior to immunoblotting. […] Blots were cut at 32.9 kD, and the bottom part of the blots were incubated with the survivin antibody overnight at 4° C. and visualized by enhanced chemiluminescence (Enhanced Chemiluminescence, Amersham, Arlington Heights, Ill.) as previously described (Sharma et al. Cell. Motil. Cytoskeleton 27:234-247).

[3] = tested on: survivin; assay: Western blot of survivin protein in nocodazole-treated TC620 cells; format: cell-based, human; details: nocodazole 10 μM, 24 h
Description: The Western blot as represented in FIG. 2B was prepared by isolating total protein from nocadozole-treated (10 μM, 24 h) and untreated TC620 cells, MSN cells, and Jurkat cells. Each lane had 75 μg of total protein.
as §1

[4] = tested on: MSN cells; assay: Flow cytometry of MSN cells treated with G2/M blockers; format: cell-based, human
Description: Next, the regulation of survivin expression at G2/M cell cycle checkpoints was evaluated. First, survivin expression was increased following treatment with the G2/M checkpoint blockers, vinblastine, nocodazole, and taxotere.

[5] = tested on: caspase-3; assay: Caspase-3 activity assay in MSN cells; format: cell-based, human; remark: listed apart in the source
Description: MSN cells were treated with lipofectin, 400 nM survivin antisense oligonucleotide 903, 904, or mismatched oligonucleotide 1132, for a 48 hour period. Cell pellets were washed twice in cold PBS and re-suspended in ice-cold hypotonic cell lysis buffer (25 mM HEPES, pH 7.5, 5 mM MgCl2, 5 mM EDTA, 5 mM DTT, 2 mM PMSF, 10 μg/ml pepstatin A, 10 μg/ml leupeptin). Re-suspended pellets were incubated on ice for 20 min, followed by brief sonication for two seconds. Lysates were centrifuged at 14,000 rpm for 20 minutes at 4° C. The supernatant was retained and the protein concentration analyzed by the Bio-Rad protein assay described above.
Supernatants were assayed in triplicate, with and without the caspase-3 inhibitor, Ac-DEVD-CHO, using black opaque, 96 well, flat bottom plates (Greiner Laboratories, USA Scientific Inc., Orlando, Fla.). 50-100 μg of the supernatant was incubated in caspase-3 assay buffer (100 mM HEPES, pH 7.5, 10% sucrose, 0.1% CHAPS and 10 mM DTT) with either 2 μl of DMSO or 2 μl of 2.5 mM Ac-DEVD-CHO (Pharmingen, San Diego, Calif.) so that the final concentration of the inhibitor was 50 μM in a final volume of 100 μl. It was then incubated at 30° C. for 30 minutes. Subsequently, 2 μl of the caspase-3 substrate 2.5 mM Ac-DEVD-AMC (Pharmingen, San Diego, Calif.) (final concentration 50 μM)) was added to each well. Plates were incubated at 30° ° C. for 60 minutes in the dark.
Fluorescence of the reaction was measured using a SPECTRAmax GEMINI spectrofluorometer using SOFTmax® PRO software (Molecular Devices, Sunnyvale, Calif.) at an excitation wavelength of 355 nm and an emission wavelength of 460 nm with a cutoff filter of 455 nm. The data is presented as the ratio of the mean relative fluorescence units/mg protein±SD.

[6] = tested on: survivin; assay: Western blot of survivin protein in antisense oligonucleotide-treated MSN cells; format: cell-based, human
Description: Six survivin (900-906) antisense oligonucleotides were administered at 400 nM to MSN cells in the presence of lipofectin for 48 hours. Each lane has 100 μg of protein. The blots were cut at 32.9 kD and the bottom incubated with the survivin polyclonal antibody (1:500), while the top was incubated with β-tubulin.
Since survivin antisense oligonucleotide 903 decreased survivin protein levels by 76%, the dose dependency of 903 on survivin protein levels was further studied. As expected, mismatched oligonucleotides had no effect on the relative abundance of survivin. […] In the presence of lipofectin, survivin antisense oligonucleotide 903 was administered to MSN cells for 48 hours at 50 nM to 200 nM. Total protein (100 μg) was loaded/lane.
Survivin antisense oligonucleotide 904 decreased survivin protein levels by 46% and 60% while survivin levels were unchanged in cells incubated with the mismatched oligonucleotide 1132. MSN cells were treated with lipofectin, survivin antisense oligonucleotide 904 or 908 at 400 nM and 600 nM, or mismatched oligonucleotide 1132 at 400 nM concentrations. Total protein (100 μg) was separated by SDS polyacrylamide gel electrophoresis and transferred to a nitrocellulose support. The blots were cut at 32.9 kD and the bottom blots incubated with the survivin polyclonal antibody (1:500), while the top blots were incubated with tubulin.
The antisense oligonucleotides were synthesized on solid support with an automated DNA synthesizer using β-cyanoethylphosphoramidite chemistry. In order to prevent rapid degradation of the antisense oligonucleotides by cellular nucleases, oxidation was carried out with Becauge sulfurizing agent to obtain phosphorothioate backbone modified oligonucleotides. After their synthesis, the oligonucleotides were released from the solid support, deprotected, purified by reverse-phase HPLC, desalted, filtered and lyophilized. The purity and sequence integrity of oligonucleotides was ascertained by capillary gel electrophoresis and MALDI-TOF mass spectral analysis and the concentrations measured at […]. Cells were grown in 100 mm dishes and oligonucleotide treatment was performed on subconfluent cultures in the presence of Lipofectin (GIBCO) according to the manufacturer. Forty-eight hours following treatment, total protein homogenates were isolated.
as §2

[7] = tested on: XIAP; details: MSN cells; 400 nM; 48 hours (FIG. 10A)
Description: MSN cells were treated with lipofectin or 400 nM survivin antisense oligonucleotides 900, 901, 903, 904, 905 and 906. Total protein was isolated 48 hours after treatment, and 100 μg of protein was loaded per lane. The blot was incubated with a monoclonal antibody against XIAP (1:1000; IgG1). Visualization was by enhanced chemiluminescence (ECL). […] The experiment was performed twice.
Total protein homogenates were prepared according to a previously described procedure (Albala et al. (1995) J. Neurochem. 64:2480-2490). Protein content was measured using the Bio-Rad detection system (Bio-Rad Laboratories, Hercules, Calif.). Equal amounts of protein were analyzed by SDS-PAGE on 10% gels (Laemmli (1970) Nature 227:680-685). The resolved polypeptides were electrophoretically transferred to nitrocellulose (Towbin et al. (1979) Proc. Natl. Acad. Sci. USA 76:4350-4354).
Survivin polyclonal antibody was purchased from R & D Systems, Inc. (Minneapolis, Minn.). […] A generic β-tubulin monoclonal antibody (TUB 2.1) was purchased from SIGMA (St. Louis, Mo.). The XIAP mAb was purchased from StressGen Biotechnologies Corp. (Victoria, Canada). The poly-ADP ribosyl polymerase (PARP) mAb was purchased from PharMingen/Transduction Laboratories (San Diego, Calif.).

[8] = tested on: PARP; assay: PARP cleavage immunoblot in MSN cells; format: cell-based, human
Description: To determine whether MSN cell death by survivin antisense oligonucleotides was mediated by caspase-3 activation, studies were conducted to examine whether PARP was cleaved following survivin antisense treatment. […] Since no PARP cleavage was detected, further tests were conducted to determine whether survivin antisense-treated cells have any active caspase-3.

[9] = 400 nM, lipofectin, 48 hours (FIG. 3A)

CN[C@@H]1C[C@H]2O[C@@](C)([C@@H]1OC)n1c3ccccc3c3c4c(c5c6ccccc6n2c5c31)C(=O)NC4 [Staurosporine]
caspase-3 activity, Relative units/mg protein +/− SD ([1]; 1 μM, 6 hours, triplicate): 264,281 ± 8130 Relative units/mg protein
fold increase in caspase-3 activity ([1]; staurosporine treatment): over 7 fold

CN1CC[C@H](c2c(O)cc(O)c3c(=O)cc(-c4ccccc4Cl)oc23)[C@H](O)C1 [flavopiridol]
survivin expression / survivin protein abundance after cell cycle blocker [2]: did not alter survivin protein abundance

COC(=O)Nc1nc2ccc(C(=O)c3cccs3)cc2[nH]1 [nocodazole]
fold increase of survivin protein relative to DMSO or EtOH [2]: 2.6 fold
survivin expression / survivin protein abundance after cell cycle blocker [2]: increased
fold increase in survivin protein [3]: 1.6 fold

CC(=O)O[C@@]12CO[C@@H]1C[C@H](O)[C@@]1(C)C(=O)[C@H](O)C3=C(C)[C@@H](OC(=O)[C@H](O)[C@@H](NC(=O)OC(C)(C)C)c4ccccc4)C[C@@](O)([C@@H](OC(=O)c4ccccc4)[C@H]21)C3(C)C [taxotere]
cell cycle phase by flow cytometry [4]: blocked at the G2/M cell cycle phase
fold increase of survivin protein relative to DMSO or EtOH [2]: 1.7 fold
survivin expression / survivin protein abundance after cell cycle blocker [2]: increased

CC[C@]1(O)C[C@@H]2CN(CCc3c([nH]c4ccccc34)[C@@](C(=O)OC)(c3cc4c(cc3OC)N(C)[C@H]3[C@@](O)(C(=O)OC)[C@H](OC(C)=O)[C@]5(CC)C=CCN6CC[C@]43[C@@H]65)C2)C1 [vinblastine]
cell cycle phase by flow cytometry [4]: blocked at the G2/M cell cycle phase
fold increase of survivin protein relative to DMSO or EtOH [2]: 1.9 fold
survivin expression / survivin protein abundance after cell cycle blocker [2]: increased

Ac-DEVD-CHO [reference compound]
effect of caspase-3 inhibitor on caspase-3 activation in the assay ([5]; added to MSN cell supernatants, final concentration 50 μM): eliminated caspase-3 activation

d(CAGTGGATGAAGGCAGCCTC) (antisense dC*dA*dG*dT*dG*dG*dA*dT*dG*dA*dA*dG*dG*dC*dA*dG*dC*dC*dT*dC) [Oligo 901]
percentage of survivin protein over β-tubulin relative to lipofectin [6, 9]: 38.3%
fold change of XIAP protein over β-tubulin relative to lipofectin [7]: 3.9 fold

d(CCCTAGCTCACACTCTCATT) (antisense dC*dC*dC*dT*dA*dG*dC*dT*dC*dA*dC*dA*dC*dT*dC*dT*dC*dA*dT*dT) [Oligo 903, 20-mer phosphorothioate survivin antisense oligonucleotide, complementary to survivin mRNA 4385-4404]
percentage of survivin protein over β-tubulin relative to lipofectin ([6]; 50 nM, 48 hours (FIG. 3B)): 83.9%
percentage of survivin protein over β-tubulin relative to lipofectin ([6]; 75 nM, 48 hours (FIG. 3B)): 62.6%
percentage of survivin protein over β-tubulin relative to lipofectin ([6]; 100 nM, 48 hours (FIG. 3B)): 95.6%
percentage of survivin protein over β-tubulin relative to lipofectin ([6]; 200 nM, 48 hours (FIG. 3B)): 48.5%
reduction in survivin ([6]; 200 nM, 48 hours (FIG. 3B)): 51%
decrease in survivin protein levels relative to lipofectin-treated control, normalized to β-tubulin ([6]; 400 nM, 48 hours (FIG. 3A)): 76%
percentage of survivin protein over β-tubulin relative to lipofectin [6, 9]: 24.3%
effect on survivin protein levels ([6]; lipofectin, 48 hours): concentration-dependent decrease in survivin protein levels
caspase-3 activity ([5]; MSN cells, 400 nM, 48 hours): no significant increase in caspase-3 activity; also recorded: did not activate caspase-3
caspase-3 activity, Relative units/mg protein +/− SD ([5]; MSN cells, 400 nM, 48 hours, triplicate): 27,850 ± 2311 Relative units/mg protein
fold change of XIAP protein over β-tubulin relative to lipofectin [7]: 5.2 fold
PARP cleavage, words [8]: did not activate caspase-3 or cleave the caspase-3 substrate, PARP

d(GAGCCTTCCTCTTCATGTCC) (antisense dG*dA*dG*dC*dC*dT*dT*dC*dC*dT*dC*dT*dT*dC*dA*dT*dG*dT*dC*dC) [Oligo 905]
fold change of XIAP protein over β-tubulin relative to lipofectin [7]: 7.6 fold

d(GCCAGTTCTTGAATGTAGAG) (antisense dG*dC*dC*dA*dG*dT*dT*dC*dT*dT*dG*dA*dA*dT*dG*dT*dA*dG*dA*dG) [Oligo 900]
percentage of survivin protein over β-tubulin relative to lipofectin [6, 9]: 77.7%
fold change of XIAP protein over β-tubulin relative to lipofectin [7]: 2.3 fold
